According to ChEMBL document CHEMBL1201862, “PubChem BioAssay data set” (2004):
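Step 1: Grow cells in 96-well plates. Step 2: Expose to compound for 48 hours at 5 concentrations. Step 3: Interpolate endpoints linearly; if unreached, use highest concentration. The concentration for 50% growth inhibition is given as GI50.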 Activity calls are given as the source filed them. No stated cut-off is given here; in the data, active = GI50 up to about 1.1 µM and inactive = higher.

Experiments:
Test in all cases: DTP human tumour cell line panel, 48 h
HT-29 = system: HT-29
UO-31 = system: UO-31
UACC-257 = system: UACC-257
MDA-MB-231 = system: MDA-MB-231
MOLT-4 = system: MOLT-4
HCT-15 = system: HCT-15
TK-10 = system: TK-10
LOX IMVI = system: LOX IMVI
SK-MEL-28 = system: SK-MEL-28
UACC-62 = system: UACC-62
SK-MEL-5 = system: SK-MEL-5
HL-60 = system: HL-60
CCRF-CEM = system: CCRF-CEM
SK-OV-3 = system: SK-OV-3
BT-549 = system: BT-549
OVCAR-8 = system: OVCAR-8
K562 = system: K562
Malme-3M = system: Malme-3M

Compound | GI50 (HT-29) | GI50 (UO-31) | GI50 (UACC-257) | GI50 (MDA-MB-231) | GI50 (MOLT-4) | GI50 (HCT-15) [µM] | GI50 (TK-10) | GI50 (LOX IMVI) | GI50 (SK-MEL-28) | GI50 (UACC-62) | GI50 (SK-MEL-5) | GI50 (HL-60) | GI50 (CCRF-CEM) | GI50 (SK-OV-3) | GI50 (BT-549) | GI50 (OVCAR-8) | GI50 (K562) | GI50 (Malme-3M)
CC(=O)Nc1ccc(-c2nc3ccccc3s2)cc1C | > 100 µM (inactive) | 17.9 µM (inactive) | 69.7 µM (inactive) | 20 µM (inactive) | 24.9 µM (inactive) | > 100 | 72.9 µM (inactive) | 36.5 µM (inactive) | 99.1 µM (inactive) | 47.1 µM (inactive) | 58.9 µM (inactive) | 29.9 µM (inactive) | > 100 µM (inactive) | 32.6 µM (inactive) | 27.5 µM (inactive) | 53.1 µM (inactive) | – | –
N=C(N)N/N=C(/c1ccccc1)c1ccc(O)cc1O | 19.7 µM (inactive) | 46.1 µM (inactive) | 35.6 µM (inactive) | 45.1 µM (inactive) | – | 39.4 | 31.6 µM (inactive) | 34.9 µM (inactive) | 72.6 µM (inactive) | 30.1 µM (inactive) | 25.8 µM (inactive) | – | – | 33.4 µM (inactive) | 37.5 µM (inactive) | 24.6 µM (inactive) | 46.3 µM (inactive) | 22.6 µM (inactive)
CC1=NN(c2nc(N)nc(COc3ccc(N)cc3)n2)C(C)(C)C1 | > 100 µM (inactive) | > 100 µM (inactive) | > 100 µM (inactive) | > 100 µM (inactive) | > 100 µM (inactive) | > 100 | > 100 µM (inactive) | > 100 µM (inactive) | > 100 µM (inactive) | > 100 µM (inactive) | > 100 µM (inactive) | > 100 µM (inactive) | > 100 µM (inactive) | > 100 µM (inactive) | > 100 µM (inactive) | > 100 µM (inactive) | > 100 µM (inactive) | –
Cn1c(=O)c2ccccc2c2ccccc21 | 40.2 µM (inactive) | 42.4 µM (inactive) | 81.1 µM (inactive) | 56.6 µM (inactive) | – | 40 | 34.1 µM (inactive) | 64.4 µM (inactive) | 85.5 µM (inactive) | 39.8 µM (inactive) | 30.3 µM (inactive) | – | 66.5 µM (inactive) | 27.5 µM (inactive) | 39.6 µM (inactive) | 45.9 µM (inactive) | – | 46 µM (inactive)
C=CCCCCCCC#CCCCCCCCCCC[C@@H]1C(=O)O[C@H](C)[C@@H]1O.CCCCCCCCC#CCCCCCCCCCC[C@@H]1C(=O)O[C@H](C)[C@@H]1O | – | 15.6 µM (inactive) | 8.45 µM (inactive) | 23.6 µM (inactive) | 12.6 µM (inactive) | 20.2 | 15.7 µM (inactive) | 12.9 µM (inactive) | 24 µM (inactive) | – | 13.3 µM (inactive) | – | – | 36.6 µM (inactive) | 15.5 µM (inactive) | 15.3 µM (inactive) | 6.19 µM (inactive) | 17.5 µM (inactive)
C/N=C(\N)N/N=C(\C)c1ccc2oc3ccc(/C(C)=N/N/C(N)=N/C)cc3c2c1 | 1.73 µM (inactive) | 6.31 µM (inactive) | 25.6 µM (inactive) | – | 0.805 µM (active) | > 23 | 4.38 µM (inactive) | 2.56 µM (inactive) | 3.93 µM (inactive) | 2.88 µM (inactive) | 2.62 µM (inactive) | 2.89 µM (inactive) | 2.39 µM (inactive) | 3.16 µM (inactive) | – | 9.27 µM (inactive) | 2.15 µM (inactive) | –
Cc1nc(Cc2n[nH]c(C)n2)n[nH]1 | > 100 µM (inactive) | > 100 µM (inactive) | > 100 µM (inactive) | > 100 µM (inactive) | > 100 µM (inactive) | > 100 | > 100 µM (inactive) | > 100 µM (inactive) | – | > 100 µM (inactive) | > 100 µM (inactive) | – | > 100 µM (inactive) | > 100 µM (inactive) | > 100 µM (inactive) | > 100 µM (inactive) | > 100 µM (inactive) | –
Cc1cccc(/N=N/c2c(C)nn(C(=O)CC(=O)Nc3ccc(Cl)cc3)c2C)c1 | > 100 µM (inactive) | > 100 µM (inactive) | > 100 µM (inactive) | 20.7 µM (inactive) | 36.6 µM (inactive) | 47.8 | > 100 µM (inactive) | 95.5 µM (inactive) | > 100 µM (inactive) | > 100 µM (inactive) | > 100 µM (inactive) | 36 µM (inactive) | 32.4 µM (inactive) | 65.6 µM (inactive) | > 100 µM (inactive) | > 100 µM (inactive) | – | –
COc1cc(C(SCc2ccccc2)SCc2ccccc2)ccc1O | > 10 µM (inactive) | 7.06 µM (inactive) | – | > 10 µM (inactive) | 9.33 µM (inactive) | > 10 | > 10 µM (inactive) | > 10 µM (inactive) | > 10 µM (inactive) | > 10 µM (inactive) | > 10 µM (inactive) | > 10 µM (inactive) | > 10 µM (inactive) | 4.22 µM (inactive) | – | > 10 µM (inactive) | > 10 µM (inactive) | > 10 µM (inactive)
